Measurements reported in patent US5198445A, “Composition and use of substituted 3-thio-2-propynenitriles as industrial antimicrobials” (The Dow Chemical Company, priority 1992, dated 1993).
Converted amounts (≈) assume the structure as drawn. Where two headings read alike, the source gives them in different places.

Experiments:
[1] = tested on: Staphylococcus aureus (Sa); test: MIC in nutrient agar, Staphylococcus aureus; format: cell-based, Staphylococcus aureus ATCC 6538
Description: (§1) The minimum inhibitory concentration (MIC) for the compounds listed in Table I is determined for 9 bacteria, using nutrient agar, and 7 yeast and fungi, using malt yeast agar. A one percent solution of the test compound is prepared in a mixture of acetone and water. Nutrient agar is prepared at pH 6.8, representing a neutral medium, and at pH 8.2, representing an alkaline medium. The nutrient agars are prepared by adding 23 g of nutrient agar to one-liter of deionized water. In addition, the alkaline medium is prepared by adjusting a 0.04M solution of N-[tris-(hydroxymethyl)methyl]-glycine buffered deionized water with concentrated sodium hydroxide to a pH of […]. Malt yeast agar is prepared by adding 3 g yeast extract and 45 g malt agar per liter of deionized water. The specific agar is dispensed in 30 ml aliquots into 25×200 mm test tubes, capped and autoclaved for 15 minutes at 115° C. The test tubes containing the agar are cooled in a water bath until the temperature of the agar is 48° C. Then, an appropriate amount of the one percent solution of the test compound is added (except in the controls where no compound is added) to the respective test tubes so that the final concentrations are 500, 250, 100, 50, 25, 10, 5, 2.5, 1.0 and zero parts per million of the test compound in the agar, thus having a known concentration of test compound dispersed therein. The contents of the test tubes are then transferred to respective petri plates. After drying for 24 hours, the petri plates containing nutrient agar are inoculated with bacteria and those containing malt yeast agar are inoculated with yeast and fungi.
(§2) The inoculation with bacteria is accomplished by using the following procedure. Twenty-four hour-cultures of each of the bacteria are prepared by incubating the respective bacteria in tubes containing nutrient broth for 24 hours at 30° C. in a shaker. Dilutions of each of the 24 hour-cultures are made so that nine separate suspensions (one for each of the nine test bacteria) are made, each containing 10^8 colony forming units (CFU) per ml of suspension of a particular bacteria. Aliquots of 0.3 ml of each of the bacterial suspensions are used to fill the individual wells of Steer's Replicator. For each microbial suspension, 0.3 ml was used to fill three wells (i.e., three wells of 0.3 ml each) so that for the nine different bacteria, 27 wells are filled. The Steer's Replicator is then used to inoculate both the neutral and alkaline pH nutrient agar petri plates.
(§3) The inoculated petri plates are incubated at 30° C. for 48 hours and then read to determine if the test compound which is incorporated into the agar prevented growth of the respective bacteria.
(§4) Table II lists the bacteria, yeast and fungi used in the MIC test described above along with their respective American Type Culture Collection (ATCC) identification numbers.
(§5) The following MIC and MEC antimicrobial tests, whose results are shown in Tables XIII-XVII, are performed using the same methods as described hereinabove.

[2] = tested on: Aureobasidium pullulan (Ap); test: MIC in malt yeast agar, Aureobasidium pullulan; format: cell-based, Aureobasidium pullulan ATCC 16622; conditions: read-out: Minimum Inhibitory Concentration, Ap
Description: as §1
(§6) The inoculation with the yeast and fungi is accomplished as follows. Cultures of yeast and fungi are incubated for seven days on malt yeast agar at 30° C. These cultures are used to prepare suspensions by the following procedure. A suspension of each organism is prepared by adding 10 ml of sterile saline and 10 microliters of octylphenoxy polyethoxy ethanol (TRITON® X-100, a trademark of Rohm & Haas Company) to the agar slant of yeast or fungi. The sterile saline/octylphenoxy polyethoxy ethanol solution is then agitated with a sterile swab to suspend the microorganism grown on the slant. Each resulting suspension is diluted into sterile saline (1 part suspension: 9 parts sterile saline). Aliquots of these dilutions are placed in individual wells of Steer's Replicator and petri plates inoculated as previously described. The petri plates are incubated at 30° C. and read after 48 hours for yeast and 72 hours for fungi.
as §4, §5

[3] = tested on: Saccharomyces cerevisiae (Sc); test: MIC in malt yeast agar, Saccharomyces cerevisiae; format: cell-based, Saccharomyces cerevisiae ATCC 4105; conditions: read-out: Minimum Inhibitory Concentration, Sc
Description: as §1, §6, §4, §5

[4] = tested on: Penicillium chrysogenum (Pc); test: MIC in malt yeast agar, Penicillium chrysogenum; format: cell-based, Penicillium chrysogenum ATCC 9480; conditions: read-out: Minimum Inhibitory Concentration, Pc
Description: as §1, §6, §4, §5

Escherichia coli (Ec) = test: MIC in nutrient agar, Escherichia coli; format: cell-based, Escherichia coli ATCC 11229
Description: as §1, §2, §3, §4, §5

Fusarium oxysporum (Fo) = test: MIC in malt yeast agar, Fusarium oxysporum; format: cell-based, Fusarium oxysporum ATCC 48112; conditions: read-out: Minimum Inhibitory Concentration, Fo
Description: as §1, §6, §4, §5

Candida albicans (Ca) = test: MIC in malt yeast agar, Candida albicans; format: cell-based, Candida albicans ATCC 10231; conditions: read-out: Minimum Inhibitory Concentration, Ca
Description: as §1, §6, §4, §5

Proteus vulgaris (Pv) = test: MIC in nutrient agar, Proteus vulgaris; format: cell-based, Proteus vulgaris ATCC 881
Description: as §1, §2, §3, §4, §5

[5] = tested on: Enterobacter aerogenes (Ea); test: MIC in nutrient agar, Enterobacter aerogenes; format: cell-based, Enterobacter aerogenes ATCC 13048
Description: as §1, §2, §3, §4, §5

Aspergillus niger (An) = test: MIC in malt yeast agar, Aspergillus niger; format: cell-based, Aspergillus niger ATCC 16404; conditions: read-out: Minimum Inhibitory Concentration, An
Description: as §1, §6, §4, §5

[6] = tested on: Pseudomonas aeruginosa (Pa); test: MIC in nutrient agar, Pseudomonas aeruginosa; format: cell-based, Pseudomonas aeruginosa ATCC 10145
Description: as §1, §2, §3, §4, §5

[7] = tested on: Salmonella choleraesuis (Sc); test: MIC in nutrient agar, Salmonella choleraesuis; format: cell-based, Salmonella choleraesuis ATCC 10708
Description: as §1, §2, §3, §4, §5

[8] = tested on: Pseudomonas aeruginosa (PRD-10); test: MIC in nutrient agar, Pseudomonas aeruginosa PRD-10; format: cell-based, Pseudomonas aeruginosa ATCC 15442
Description: as §1, §2, §3, §4, §5

Trichoderma viride (Tv) = test: MIC in malt yeast agar, Trichoderma viride; format: cell-based, Trichoderma viride ATCC 8678; conditions: read-out: Minimum Inhibitory Concentration, Tv
Description: as §1, §6, §4, §5

[9] = tested on: Klebsiella pneumoniae (Kp); test: MIC in nutrient agar, Klebsiella pneumoniae; format: cell-based, Klebsiella pneumoniae ATCC 8308
Description: as §1, §2, §3, §4, §5

Bacillus subtilis (Bs) = test: MIC in nutrient agar, Bacillus subtilis; format: cell-based, Bacillus subtilis ATCC 8473
Description: as §1, §2, §3, §4, §5

[10] = Escherichia coli, pH 6.8, read-out: Minimum Inhibitory Concentration, Ec
[11] = Escherichia coli, pH 8.2, read-out: Minimum Inhibitory Concentration, Ec
[12] = pH 6.8, read-out: Minimum Inhibitory Concentration, Pv
[13] = pH 8.2, read-out: Minimum Inhibitory Concentration, Pv
[14] = Klebsiella aerogenes, pH 6.8, read-out: Minimum Inhibitory Concentration, Ea
[15] = Klebsiella aerogenes, pH 8.2, read-out: Minimum Inhibitory Concentration, Ea
[16] = pH 6.8, read-out: Minimum Inhibitory Concentration, Pa
[17] = pH 8.2, read-out: Minimum Inhibitory Concentration, Pa
[18] = Salmonella enterica, CHOLERAESUIS, pH 6.8, read-out: Minimum Inhibitory Concentration, Sc
[19] = Salmonella enterica, CHOLERAESUIS, pH 8.2, read-out: Minimum Inhibitory Concentration, Sc
[20] = Pseudomonas aeruginosa, pH 6.8, read-out: Minimum Inhibitory Concentration, PRD
[21] = pH 6.8, read-out: Minimum Inhibitory Concentration, Kp
[22] = pH 8.2, read-out: Minimum Inhibitory Concentration, Kp
[23] = Staphylococcus aureus, pH 6.8; read-out: Minimum Inhibitory Concentration, Sa
[24] = Staphylococcus aureus, pH 8.2; read-out: Minimum Inhibitory Concentration, Sa
[25] = Pseudomonas aeruginosa, pH 8.2; read-out: Minimum Inhibitory Concentration, PRD
[26] = Bacillus subtilis, pH 6.8; read-out: Minimum Inhibitory Concentration, Bs
[27] = Bacillus subtilis, pH 8.2; read-out: Minimum Inhibitory Concentration, Bs

Compound	MIC [3] [µg/mL]	MIC (Escherichia coli (Ec); [10]) [µg/mL]	MIC (Escherichia coli (Ec); [11]) [µg/mL]	MIC (Proteus vulgaris (Pv); [12]) [µg/mL]	MIC (Proteus vulgaris (Pv); [13]) [µg/mL]	MIC [5, 14] [µg/mL]	MIC [5, 15] [µg/mL]	MIC [6, 16] [µg/mL]	MIC [6, 17] [µg/mL]	MIC [7, 18] [µg/mL]	MIC [7, 19] [µg/mL]	MIC [8, 20] [µg/mL]	MIC [9, 21] [µg/mL]	MIC [9, 22] [µg/mL]	MIC [1, 23] [µg/mL]	MIC [1, 24] [µg/mL]	MIC ([2]; malt yeast agar) [µg/mL]	MIC ([4]; malt yeast agar) [µg/mL]	MIC (Fusarium oxysporum (Fo); malt yeast agar) [µg/mL]	MIC (Candida albicans (Ca); malt yeast agar) [µg/mL]	also measured
CS/C=C(/Cl)C#N [Compound H, E isomer of 2-chloro-3-(methylthio)-2-propenenitrile]	500 (≈ 3740 µM)	> 500	500 (≈ 3740 µM)	> 500	250 (≈ 1870 µM)	> 500	500 (≈ 3740 µM)	> 500	250 (≈ 1870 µM)	> 500	500 (≈ 3740 µM)	> 500	> 500	500 (≈ 3740 µM)							MIC ([1]; Staphylococcus aureus, pH 6.8, read-out: Minimum Inhibitory Concentration, Sa): > 500 µg/mL; MIC ([1]; Staphylococcus aureus, pH 8.2, read-out: Minimum Inhibitory Concentration, Sa): 500 µg/mL (≈ 3740 µM); MIC [2]: 250 µg/mL (≈ 1870 µM); MIC [4]: 100 µg/mL (≈ 748 µM); MIC (Fusarium oxysporum (Fo)): 100 µg/mL (≈ 748 µM); MIC (Candida albicans (Ca)): 250 µg/mL (≈ 1870 µM); MIC (Aspergillus niger (An)): 250 µg/mL (≈ 1870 µM); MIC ([8]; Pseudomonas aeruginosa, pH 8.2, read-out: Minimum Inhibitory Concentration, PRD): 250 µg/mL (≈ 1870 µM); MIC (Trichoderma viride (Tv)): 250 µg/mL (≈ 1870 µM); MIC (Bacillus subtilis (Bs); Bacillus subtilis, pH 6.8, read-out: Minimum Inhibitory Concentration, Bs): > 500 µg/mL; MIC (Bacillus subtilis (Bs); Bacillus subtilis, pH 8.2, read-out: Minimum Inhibitory Concentration, Bs): 500 µg/mL (≈ 3740 µM)
CCCCCCCCCCSC#CC#N [E, 3-decylthio-2-propynenitrile]	25 (≈ 112 µM)	> 500		> 500	> 500	> 500	> 500	> 500	500 (≈ 2240 µM)	> 500	> 500	> 500	> 500	> 500	25 (≈ 112 µM)	25 (≈ 112 µM)	> 500	500 (≈ 2240 µM)	500 (≈ 2240 µM)	> 500	MIC (Escherichia coli (Ec); Escherichia coli, pH 8.2; read-out: Minimum Inhibitory Concentration, Ec): 100 µg/mL (≈ 448 µM); MIC (Aspergillus niger (An); malt yeast agar): > 500 µg/mL; MIC [8, 25]: 25 µg/mL (≈ 112 µM); MIC (Trichoderma viride (Tv); malt yeast agar): 500 µg/mL (≈ 2240 µM); MIC (Bacillus subtilis (Bs); [26]): 100 µg/mL (≈ 448 µM); MIC (Bacillus subtilis (Bs); [27]): 25 µg/mL (≈ 112 µM)
CCCCCCCCCCCCSC#CC#N [F, 3-dodecylthio-2-propynenitrile]			> 500	> 500	> 500			> 500	500 (≈ 1990 µM)				> 500	> 500	> 500	25 (≈ 99.4 µM)	> 500	500 (≈ 1990 µM)	> 500	> 500	MIC ([3]; malt yeast agar): > 500 µg/mL; MIC (Escherichia coli (Ec); Escherichia coli, pH 6.8; read-out: Minimum Inhibitory Concentration, Ec): > 500 µg/mL; MIC ([5]; Klebsiella aerogenes, pH 6.8; read-out: Minimum Inhibitory Concentration, Ea): > 500 µg/mL; MIC ([5]; Klebsiella aerogenes, pH 8.2; read-out: Minimum Inhibitory Concentration, Ea): > 500 µg/mL; MIC (Aspergillus niger (An); malt yeast agar): > 500 µg/mL; MIC ([7]; Salmonella enterica, CHOLERAESUIS, pH 6.8; read-out: Minimum Inhibitory Concentration, Sc): > 500 µg/mL; MIC ([7]; Salmonella enterica, CHOLERAESUIS, pH 8.2; read-out: Minimum Inhibitory Concentration, Sc): > 500 µg/mL; MIC ([8]; Pseudomonas aeruginosa, pH 6.8; read-out: Minimum Inhibitory Concentration, PRD): > 500 µg/mL; MIC [8, 25]: 100 µg/mL (≈ 398 µM); MIC (Trichoderma viride (Tv); malt yeast agar): > 500 µg/mL; MIC (Bacillus subtilis (Bs); [26]): 100 µg/mL (≈ 398 µM); MIC (Bacillus subtilis (Bs); [27]): 100 µg/mL (≈ 398 µM)
